In PubChem BioAssay AID1963445 (Molecular Pharmacology Branch, DTP, NCI, 2024):

System: MCF7 complex spheroid growth, % test/control
Experiment: Anticancer human tumor MCF7 cell line growth inhibition [Asc];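 also: spheroids exposed to compounds for 7 days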;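 as to viability, T/C: 100% = DMSO vehicle control wells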
Conditions: for IC50: curve of first compound; for viability, T/C: stronger effect = lower value; active = viability on the fitted dose curve at most 10% of control; inactive = the rest
In short: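 Tumor cells were grown as multicellular spheroids with stromal HUVEC and mesenchymal stem cells and treated singly or in combination. Concentrations fell in half-log steps from the clinical Cmax, or from 10 microM where none was known.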

[1] = second compound 0.00316 µM, first compound 0.00316 µM
[2] = second compound 0.00316 µM, first compound 0.01 µM
[3] = second compound 0.00316 µM, first compound 0.0316 µM
[4] = second compound 0.00316 µM, first compound 0.1 µM
[5] = second compound 0.00316 µM, first compound 0.316 µM
[6] = second compound 0.00316 µM, first compound 1 µM
[7] = second compound 0.01 µM, first compound 0.00316 µM
[8] = second compound 0.01 µM, first compound 0.01 µM
[9] = second compound 0.01 µM, first compound 0.0316 µM
[10] = second compound 0.01 µM, first compound 0.1 µM
[11] = second compound 0.01 µM, first compound 0.316 µM
[12] = second compound 0.01 µM, first compound 1 µM
[13] = second compound 0.0316 µM, first compound 0.00316 µM
[14] = second compound 0.0316 µM, first compound 0.01 µM
[15] = second compound 0.0316 µM, first compound 0.0316 µM
[16] = second compound 0.0316 µM, first compound 0.1 µM
[17] = second compound 0.0316 µM, first compound 0.316 µM
[18] = second compound 0.0316 µM, first compound 1 µM
[19] = second compound 0.1 µM, first compound 0.00316 µM
[20] = second compound 0.1 µM, first compound 0.01 µM
[21] = second compound 0.1 µM, first compound 0.0316 µM
[22] = second compound 0.1 µM, first compound 0.1 µM
[23] = second compound 0.1 µM, first compound 0.316 µM
[24] = second compound 0.1 µM, first compound 1 µM
[25] = second compound 0.316 µM, first compound 0.00316 µM
[26] = second compound 0.316 µM, first compound 0.01 µM
[27] = second compound 0.316 µM, first compound 0.0316 µM
[28] = second compound 0.316 µM, first compound 0.1 µM
[29] = second compound 0.316 µM, first compound 0.316 µM
[30] = second compound 0.316 µM, first compound 1 µM
[31] = second compound 1 µM, first compound 0.00316 µM
[32] = second compound 1 µM, first compound 0.01 µM
[33] = second compound 1 µM, first compound 0.0316 µM
[34] = second compound 1 µM, first compound 0.1 µM
[35] = second compound 1 µM, first compound 0.316 µM
[36] = second compound 1 µM, first compound 1 µM

CCN1CCN(Cc2ccc(Nc3ncc(F)c(-c4cc(F)c5nc(C)n(C(C)C)c5c4)n3)nc2)CC1 + CNC(C)C(=O)NC1CN(S(=O)(=O)c2cccc(S(=O)(=O)N3CCC4CCC(C(=O)NC(c5ccccc5)c5ccccc5)N4C(=O)C(NC(=O)C(C)NC)C3)c2)CCC2CCC(C(=O)NC(c3ccccc3)c3ccccc3)N2C1=O
inactive: viability, T/C [1] 30.3% | viability, T/C [2] 32.9% | viability, T/C [3] 12.9% | viability, T/C [4] 20.2% | viability, T/C [5] 12.3% | viability, T/C [6] 14.1% | viability, T/C [7] 17.1% | viability, T/C [8] 10.8% | viability, T/C [9] 10.1% | viability, T/C [10] 10.1% | viability, T/C [11] 10.5% | viability, T/C [12] 11.8% | viability, T/C [13] 14.4% | viability, T/C [14] 9.49% | viability, T/C [15] 9.67% | viability, T/C [16] 11.8% | viability, T/C [17] 11.1% | viability, T/C [18] 10.6% | viability, T/C [19] 12.2% | viability, T/C [20] 10.9% | viability, T/C [21] 10.2% | viability, T/C [22] 8.76% | viability, T/C [23] 11.4% | viability, T/C [24] 10% | viability, T/C [25] 13.4% | viability, T/C [26] 13.1% | viability, T/C [27] 13.2% | viability, T/C [28] 11.2% | viability, T/C [31] 10.8% | viability, T/C [32] 12% | viability, T/C [33] 11.3% | viability, T/C [34] 10.8% | viability, T/C [35] 10.7% | viability, T/C [36] 8.18%
< 3.16 nM: IC50 (second compound 0.00316 µM) | IC50 (second compound 0.01 µM) | IC50 (second compound 0.0316 µM) | IC50 (second compound 0.1 µM) | IC50 (second compound 0.316 µM) | IC50 (second compound 1 µM)
active: viability, T/C [29] 8.8% | viability, T/C [30] 8.66%

Cn1ncnc1[C@H]1c2n[nH]c(=O)c3cc(F)cc(c23)N[C@@H]1c1ccc(F)cc1 + CNC(C)C(=O)NC1CN(S(=O)(=O)c2cccc(S(=O)(=O)N3CCC4CCC(C(=O)NC(c5ccccc5)c5ccccc5)N4C(=O)C(NC(=O)C(C)NC)C3)c2)CCC2CCC(C(=O)NC(c3ccccc3)c3ccccc3)N2C1=O
inactive: viability, T/C (second compound 0.00316 µM, first compound 0.000316 µM) 13.7% | viability, T/C (second compound 0.00316 µM, first compound 0.001 µM) 11.2% | viability, T/C [1] 11.4% | viability, T/C [2] 13.2% | viability, T/C [3] 12.5% | viability, T/C [4] 10.1% | viability, T/C (second compound 0.01 µM, first compound 0.000316 µM) 12.8% | viability, T/C (second compound 0.01 µM, first compound 0.001 µM) 12.4% | viability, T/C [7] 14.8% | viability, T/C [8] 12.8% | viability, T/C [9] 12.4% | viability, T/C [10] 12.7% | viability, T/C (second compound 0.0316 µM, first compound 0.000316 µM) 10.1% | viability, T/C (second compound 0.0316 µM, first compound 0.001 µM) 10.7% | viability, T/C [13] 12.2% | viability, T/C [14] 9.67% | viability, T/C [15] 9.98% | viability, T/C [16] 12.2% | viability, T/C (second compound 0.1 µM, first compound 0.000316 µM) 11.1% | viability, T/C (second compound 0.1 µM, first compound 0.001 µM) 14.1% | viability, T/C [19] 11.7% | viability, T/C [20] 11.5% | viability, T/C [21] 10.3% | viability, T/C [22] 11.4% | viability, T/C (second compound 0.316 µM, first compound 0.000316 µM) 10.9% | viability, T/C (second compound 0.316 µM, first compound 0.001 µM) 10.8% | viability, T/C [25] 13% | viability, T/C [26] 11.1% | viability, T/C [27] 11.9% | viability, T/C [28] 12.8% | viability, T/C (second compound 1 µM, first compound 0.000316 µM) 14.7% | viability, T/C (second compound 1 µM, first compound 0.001 µM) 13.5% | viability, T/C [31] 12.3% | viability, T/C [32] 12.8% | viability, T/C [33] 9.82% | viability, T/C [34] 13.9%
< 0.316 nM: IC50 (second compound 0.00316 µM) | IC50 (second compound 0.01 µM) | IC50 (second compound 0.0316 µM) | IC50 (second compound 0.1 µM) | IC50 (second compound 0.316 µM) | IC50 (second compound 1 µM)

O=C(c1ccc(F)c(F)c1Nc1ccc(I)cc1F)N1CC(O)([C@@H]2CCCCN2)C1 + CNC(C)C(=O)NC1CN(S(=O)(=O)c2cccc(S(=O)(=O)N3CCC4CCC(C(=O)NC(c5ccccc5)c5ccccc5)N4C(=O)C(NC(=O)C(C)NC)C3)c2)CCC2CCC(C(=O)NC(c3ccccc3)c3ccccc3)N2C1=O
< 3.16 nM: IC50 (second compound 0.00316 µM) | IC50 (second compound 0.01 µM) | IC50 (second compound 0.0316 µM) | IC50 (second compound 0.1 µM) | IC50 (second compound 0.316 µM) | IC50 (second compound 1 µM)
inactive: viability, T/C [1] 38.1% | viability, T/C [2] 41.5% | viability, T/C [3] 34.6% | viability, T/C [4] 26% | viability, T/C [5] 19.4% | viability, T/C [6] 12.3% | viability, T/C [7] 17.3% | viability, T/C [8] 14.8% | viability, T/C [9] 17.2% | viability, T/C [10] 12.9% | viability, T/C [11] 12.9% | viability, T/C [12] 11.6% | viability, T/C [13] 14.8% | viability, T/C [14] 15.4% | viability, T/C [15] 13.3% | viability, T/C [16] 16.4% | viability, T/C [17] 10.7% | viability, T/C [18] 10.2% | viability, T/C [19] 13.2% | viability, T/C [20] 13.5% | viability, T/C [21] 14.4% | viability, T/C [22] 12.3% | viability, T/C [23] 13.8% | viability, T/C [24] 9.72% | viability, T/C [25] 13.3% | viability, T/C [26] 14.3% | viability, T/C [27] 15.9% | viability, T/C [28] 12.5% | viability, T/C [29] 11.6% | viability, T/C [30] 12.4% | viability, T/C [31] 14.6% | viability, T/C [32] 13.8% | viability, T/C [33] 12.4% | viability, T/C [34] 12.9% | viability, T/C [35] 13% | viability, T/C [36] 13.2%
